Laboratory results taken from patent publication US20240116946A1 (Gilead Sciences, Inc., priority 2022, published 2024).
Where two headings read alike, the source gives them in different places.

How the values were obtained:
[1] = biological target: recombinant SARS-CoV-2 Main protease (Mpro) (Severe acute respiratory syndrome coronavirus 2 (2019-nCoV) (SARS-CoV-2), UniProt P0DTD1); assay: Cov Mpro Biochemical IC50 Assay
SARS-CoV-2-NLuc = assay: microbe, parasite or virus in culture; format: cell-based, SARS Coronavirus 2
[2] = recombinant SARS-CoV-2 Mpro 7.5 nM, fluorogenic peptide substrate 40 μM, read-out: MPro IC50
[3] = Severe acute respiratory syndrome coronavirus, 48 h; read-out: MPro EC50
[4] = Severe acute respiratory syndrome coronavirus, 48 h, read-out: MPro EC50
[5] = recombinant SARS-CoV-2 Mpro, fluorogenic peptide substrate, read-out: MPro IC50

In the case of `O=c1[nH]c2cc(-c3ccccc3Cl)ccc2c(=O)n1-c1cncc(C(F)(F)F)c1` [Example 578], the IC50 [1, 2] is reported as greater than 50000 nM and the EC50 (SARS-CoV-2-NLuc; [3]) is reported as 9870 nM.
Compound `COc1cc(-c2cc3[nH]c(=O)n(-c4cnnc(C)c4)c(=O)c3s2)c(Cl)cc1F` [Example 714] has an IC50 [1, 2] greater than 1000 nM and an EC50 (SARS-CoV-2-NLuc; [4]) greater than 1000 nM.
`COc1cc(-c2cc3c(s2)c(=O)n(-c2cncc4cnn(C)c24)c(=O)n3CC#N)c(Cl)cc1F` (single isomer, unassigned) [Example 1012, 2-[6-(2-chloro-4-fluoro-5-methoxy-phenyl)-3-(1-methylpyrazolo[4,3-c]pyridin-7-yl)-2,4-dioxo-thieno[3,2-d]pyrimidin-1-yl]acetonitrile] was tested, and the IC50 [1, 2] was 1.99 nM and the EC50 (SARS-CoV-2-NLuc; read-out: MPro EC50) was 3.19 nM.
With `COc1cncc(-n2c(=O)c3sc(-c4ccccc4Cl)cc3n(CCC#N)c2=O)c1` [Example 836] the IC50 [1, 2] was 21.7 nM and the EC50 (SARS-CoV-2-NLuc; [3]) was 40.5 nM.
For `COc1cc(-c2cc3[nH]c(=O)n(-c4cncc5ccn(C)c45)c(=O)c3cc2OC)c(C#N)cc1F` [Example 683], the IC50 [1, 2] was 8.88 nM and the EC50 (SARS-CoV-2-NLuc; [4]) was 43.7 nM.
`COc1cc(-c2cc3c(s2)c(=O)n(-c2cncc(C)c2)c(=O)n3CCC#N)c(C#N)cc1F` [Example 876] gave an IC50 [1, 2] of 2.76 nM and an EC50 (SARS-CoV-2-NLuc; [4]) of 6.25 nM.
Compound `COc1cccc(-c2ccc3c(=O)n(-c4cncc5ccccc45)c(=O)[nH]c3c2)c1Cl` [Example 295] has an IC50 [1, 5] of 7430 nM and an EC50 (SARS-CoV-2-NLuc; [4]) of 13500 nM.
`COCc1cccc(Cl)c1-c1ccc2c(=O)n(-c3cncc4ccccc34)c(=O)[nH]c2c1` [Example 100] was tested, and the IC50 [1, 5] was 326 nM and the EC50 (SARS-CoV-2-NLuc; [4]) was 448 nM.
With `N#CCCn1c(=O)n(-c2cncc3ccccc23)c(=O)c2sc(-c3c(Cl)cccc3-c3cncc(C#N)c3)cc21` [Example 935] the IC50 [1, 2] was 14.3 nM and the EC50 (SARS-CoV-2-NLuc; [4]) was 24.6 nM.
For `COc1cc(-c2ccc3c(=O)n(-c4cncc5ccccc45)c(=O)[nH]c3c2)c(Cl)cn1` [Example 253], the IC50 [1, 5] was 459 nM and the EC50 (SARS-CoV-2-NLuc; [4]) was 1210 nM.
`COc1cnc(Cl)c(-c2cc3c(s2)c(=O)n(-c2cncc4cccc(F)c24)c(=O)n3CCC#N)c1` (single isomer, unassigned) [Example 1095, 3-(6-(2-chloro-5-methoxypyridin-3-yl)-3-(5-fluoroisoquinolin-4-yl)-2,4-dioxo-3,4-dihydrothieno[3,2-d]pyrimidin-1(2H)-yl)propanenitrile] showed an IC50 [1, 2] of 55.6 nM and an EC50 (SARS-CoV-2-NLuc; read-out: MPro EC50) of 123 nM.
Work on `COC1CCN(c2ccc3cncc(-n4c(=O)[nH]c5cc(-c6ccccc6Cl)sc5c4=O)c3c2)CC1` [Example 401] yielded an IC50 [1, 2] of 3.84 nM and an EC50 (SARS-CoV-2-NLuc; [4]) of 10.6 nM.
With `COc1ccc(C#N)c(-c2cc3[nH]c(=O)n(-c4cncc5cnccc45)c(=O)c3s2)c1` [Example 583] the IC50 [1, 2] was 20.9 nM and the EC50 (SARS-CoV-2-NLuc; [4]) was 227 nM.
`Cn1nnc2cncc(-n3c(=O)c4sc(-c5ccc(F)cc5Cl)cc4n(CCC#N)c3=O)c21` (single isomer, unassigned) [Example 1028, 3-[6-(2-chloro-4-fluoro-phenyl)-3-(1-methyltriazolo[4,5-c]pyridin-7-yl)-2,4-dioxo-thieno[3,2-d]pyrimidin-1-yl]propanenitrile] was tested, and the IC50 [1, 2] was 17.9 nM and the EC50 (SARS-CoV-2-NLuc; read-out: MPro EC50) was 51 nM.
`COc1ccc(C)c(-c2ccc3c(=O)n(-c4cncc5ccccc45)c(=O)[nH]c3c2)c1` [Example 301] gave an IC50 [1, 5] of 259 nM and an EC50 (SARS-CoV-2-NLuc; [4]) of 173 nM.
With `O=c1[nH]c2cc(-c3ccccc3Cl)sc2c(=O)n1-c1cncc2nccn12` [Example 135] the IC50 [1, 5] was 51.5 nM and the EC50 (SARS-CoV-2-NLuc; [4]) was 288 nM.
In the case of `COc1cc(-c2cc3c(s2)c(=O)n(-c2cncc4ccc(F)cc24)c(=O)n3CCC#N)c(Cl)cc1F` [Example 945], the IC50 [1, 2] is reported as 8 nM and the EC50 (SARS-CoV-2-NLuc; [4]) is reported as 8.65 nM.
`Cc1cncc(-n2c(=O)c3sc(-c4cc(Cl)ccc4C#N)cc3n(CCC#N)c2=O)c1` [Example 879] showed an IC50 [1, 2] of 4.33 nM and an EC50 (SARS-CoV-2-NLuc; [3]) of 20.4 nM.
With `O=c1c2sc(-c3ccccc3Cl)cc2n(Cc2ccncc2)c(=O)n1-c1cncc2ccccc12` [Example 157] the IC50 [1, 5] was 164 nM and the EC50 (SARS-CoV-2-NLuc; [4]) was 204 nM.
With `Cc1nc2cc(-c3cccc(Cl)c3-c3ccc4c(=O)n(-c5cncc6ccccc56)c(=O)[nH]c4c3)ccc2o1` [Example 359] the IC50 [1, 5] was 107 nM and the EC50 (SARS-CoV-2-NLuc; [4]) was 91.4 nM.
`COc1cc(-c2cc3[nH]c(=O)n(-c4cncc5ccccc45)c(=O)c3cc2OC)c(C#N)cc1F` (single isomer, unassigned) [Example 572, 5-fluoro-2-[3-(4-isoquinolyl)-6-methoxy-2,4-dioxo-1H-quinazolin-7-yl]-4-methoxy-benzonitrile] gave an IC50 [1, 2] of 2.9 nM and an EC50 (SARS-CoV-2-NLuc; read-out: MPro EC50) of 10.6 nM.
In the case of `COc1ccc(Cl)c(-c2cc3[nH]c(=O)n(-c4cncc5ccc(N6CCOCC6)nc45)c(=O)c3s2)c1` [Example 457], the IC50 [1, 2] is reported as less than 2.54 nM and the EC50 (SARS-CoV-2-NLuc; [4]) is reported as less than 6.04 nM.
For `O=c1[nH]c2cc(-c3c(Cl)cccc3-c3nc4ccccc4[nH]3)ccc2c(=O)n1-c1cncc2ccccc12` [Example 161, 7-[2-(1H-benzimidazol-2-yl)-6-chloro-phenyl]-3-(4-isoquinolyl)-1H-quinazoline-2,4-dione], the IC50 [1, 5] was 27.1 nM and the EC50 (SARS-CoV-2-NLuc; [4]) was 129 nM.
`Cn1ccc2cccc(-c3ccc4c(=O)n(-c5cncc6ccccc56)c(=O)[nH]c4c3)c21` [Example 41] gave an IC50 [1, 5] of 1480 nM and an EC50 (SARS-CoV-2-NLuc; [3]) of 3840 nM.
In the case of `Cc1cc(-c2cc3c(s2)c(=O)n(-c2cncc4ccccc24)c(=O)n3CCC#N)c(C#N)cc1F` [Example 823], the IC50 [1, 2] is reported as 16.3 nM and the EC50 (SARS-CoV-2-NLuc; [4]) is reported as 25.7 nM.
`COc1cc(-c2cc3[nH]c(=O)n(-c4cncc5cccc(F)c45)c(=O)c3s2)c(C#N)cc1F` [Example 762] showed an IC50 [1, 2] of 7.21 nM and an EC50 (SARS-CoV-2-NLuc; [4]) of 20.3 nM.
For `Cn1ncc2cncc(-n3c(=O)c4sc(-c5ccc(Cl)cc5C#N)cc4n(CCC#N)c3=O)c21` [Example 824], the IC50 [1, 2] was 22.5 nM and the EC50 (SARS-CoV-2-NLuc; [3]) was 79.9 nM.
For `COc1cc(-c2cc3[nH]c(=O)n(-c4cncc5cccc(F)c45)c(=O)c3s2)c(Cl)cc1F` (single isomer, unassigned) [Example 900, 6-(2-chloro-4-fluoro-5-methoxyphenyl)-3-(5-fluoroisoquinolin-4-yl)thieno[3,2-d]pyrimidine-2,4(1H,3H)-dione], the IC50 [1, 2] was 334 nM and the EC50 (SARS-CoV-2-NLuc; read-out: MPro EC50) was 172 nM.
Work on `COc1ccc2cncc(-n3c(=O)[nH]c4cc(-c5c(Cl)cccc5C5=CCOCC5)sc4c3=O)c2c1` [Example 563] yielded an IC50 [1, 2] of 6.96 nM and an EC50 (SARS-CoV-2-NLuc; [4]) of 10 nM.
Work on `Cc1cncc(-n2c(=O)[nH]c3cc(-c4ccccc4Cl)sc3c2=O)c1OCC(F)(F)F` [Example 372] yielded an IC50 [1, 5] of 77.8 nM and an EC50 (SARS-CoV-2-NLuc; [4]) of 176 nM.
With `O=c1[nH]c2cc(-c3cccc4cccnc34)ccc2c(=O)n1-c1cncc2ccccc12` [Example 40] the IC50 [1, 5] was 1310 nM and the EC50 (SARS-CoV-2-NLuc; [3]) was 4910 nM.
Work on `O=c1[nH]c2cc(-c3ccccc3C3CC3)ccc2c(=O)n1-c1cncc2ccccc12` [Example 45] yielded an IC50 ([1]; MPro IC50, recombinant SARS-CoV-2 Mpro, fluorogenic peptide substrate) of 1710 nM and an EC50 (SARS-CoV-2-NLuc; [3]) of 1220 nM.
`CCn1ncc2cncc(-n3c(=O)c4sc(-c5cc(OC)c(F)cc5Cl)cc4n(CCC#N)c3=O)c21` [Example 910] showed an IC50 [1, 2] of 4.34 nM and an EC50 (SARS-CoV-2-NLuc; [4]) of 4.35 nM.
Work on `COc1cc(-c2cc3c(s2)c(=O)n(-c2cncc4ccccc24)c(=O)n3[C@H]2C[C@@H](C#N)C2)c(Cl)cc1F` [Example 694] yielded an IC50 [1, 2] of 19.3 nM and an EC50 (SARS-CoV-2-NLuc; [4]) of 61 nM.
In the case of `COc1cc(-c2cc3c(s2)c(=O)n(-c2cncc4nc(C)sc24)c(=O)n3CCC#N)c(Cl)cc1F` [Example 941], the IC50 [1, 2] is reported as 7.53 nM and the EC50 (SARS-CoV-2-NLuc; [4]) is reported as 40.1 nM.
Work on `Cc1ccc(-c2cc3[nH]c(=O)n(-c4cncc5ccccc45)c(=O)c3s2)c(Cl)c1` [Example 339] yielded an IC50 [1, 5] of 14.8 nM and an EC50 (SARS-CoV-2-NLuc; [4]) of 48.2 nM.
`O=c1[nH]c2cc(-c3c(Cl)cccc3-c3ccc4oncc4c3)ccc2c(=O)n1-c1cncc2ccccc12` [Example 361] was tested, and the IC50 [1, 5] was 38.9 nM and the EC50 (SARS-CoV-2-NLuc; [4]) was 178 nM.
